According to patent publication US10039761B2, “Co-crystals and pharmaceutical compositions comprising the same” (Vertex Pharmaceuticals Incorporated, priority 2013, dated 2018):

Tests used:
[1] = Body weight in LU-01-0030 xenograft studies; type: in vivo, mice; conditions: Day 34 study
Protocol: The in vivo efficacies of Compounds (1) and (2) were evaluated alone and in combination with three consecutive days of focused IR in the primary LU-01-0030 NSCLC subcutaneous xenograft model. The dose-dependent anti-tumor activity of Compound (2) alone and in combination with focused beam IR was evaluated in the LU-01-0030 model. […] Mice in the combination treatment groups were monitored (without treatment) for up to 90 days as some mice had no evidence of tumor burden.

[2] = system: LU-01-0030 primary NSCLC subcutaneous xenograft; test: LU-01-0030 primary NSCLC xenograft efficacy with focused IR; type: in vivo, mice
Protocol: The in vivo efficacies of Compounds (1) and (2) were evaluated alone and in combination with three consecutive days of focused IR in the primary LU-01-0030 NSCLC subcutaneous xenograft model. The dose-dependent anti-tumor activity of Compound (2) alone and in combination with focused beam IR was evaluated in the LU-01-0030 model.
(§1) In Tables 14 and 15, for example, PO bid (0, 4 h) indicates Compound (2) is administered twice (bid) at time point 0 and then 4 hours after; IR (0.25 h) qdx3 indicates radiation is administered 15 minutes (0.25 h) after the administration of Compound (2) (0 h), and once a day for 3 days (qdx3); q7dx2 indicates once a week for two weeks; qod indicates every other day twice (e.g., Day 1 and Day 3); and paclitaxel q7dx3 (−0.25 h), carboplatin q7dx3 (−0.25 h) indicates administration of paclitaxel and carboplatin 15 minutes prior to the administration of Compound (2), followed by additional administration of Compound (2) after 4 hours after the first administration of Compound (2).

[3] = system: ST-02-0004 primary GEJ tumor xenograft; test: ST-02-0004 primary GEJ tumor xenograft efficacy with focused IR; type: in vivo; conditions: for % T/C (Day 45): 5 mg/kg paclitaxel, 25 mg/kg carboplatin q7dx3 (−[…])
Protocol: The in vivo activities of Compounds (1) and (2) were compared in combination with focused beam IR in a primary gastric cancer subcutaneous xenograft model. In the ST 02 0004 model, focused IR was administered on three consecutive days alone and in combination with Compound (1) or Compound (2).
The anti-tumor activity of Compound (2) in combination with focused-beam IR and the standard of care agents, paclitaxel and carboplatin, was also evaluated in the ST 02 0004 model. Treatment with paclitaxel, carboplatin, and IR was administered once per week for three weeks alone or in combination with Compound (2).
as §1

[4] = Body weight in OE-19 xenograft studies; type: in vivo; conditions: PO 100 mg/kg bid (0, 4 h) q7dx2, 2 Gy IR q7dx2 ([…]); Day 7
Protocol: The OE-19 cell line xenograft model was used to evaluate the efficacy of Compounds (1) and (2) alone and in combination with IR. Two cycles of treatment were administered (Day 0 and Day 7) as performed in the OD26749 model above.

[5] = Body weight in OD26749 xenograft studies; type: in vivo, nude mice; conditions: bridging study; Compound (2) PO 50 mg/kg bid (0, 4 h), 2 Gy ([…]) qdx3; Day 1
[6] = system: OD26749 primary NSCLC xenograft; test: OD26749 primary NSCLC xenograft efficacy with whole body IR; type: in vivo, nude mice; conditions: bridging study; Compound (2) PO 50 mg/kg bid (0, 4 h), 2 Gy ([…]) qdx3
Protocol: The in vivo efficacies of Compounds (1) and (2) in combination with whole body IR were examined in the OD26749 primary NSCLC (non-small cell lung cancer) and the OE-19 GEJ cell line xenograft models. In these studies, Compounds (1) and (2) were formulated with 16% captisol/1% PVP/1% HPMC E5 pH2.
The in vivo efficacy of Compound (1) was evaluated in the primary OD26749 NSCLC subcutaneous xenograft model. […] […] Compound (1) was administered PO (tid at 0, 3, and 7 h) at 100 mg/kg alone or with a single 2 Gy dose of whole body IR at 3.25 h. […] Compound (1) in combination with 2 Gy whole body IR induced significant tumor regression (% T/Ti of −75; P<0.01) compared to IR alone.
The efficacies of Compounds (1) and (2) in combination with whole body IR (2 Gy) were evaluated in the OD26749 primary NSCLC xenograft model at a Compound ([…]) and Compound (2) dose levels of 50 mg/kg and 100 mg/kg PO bid (0 and 4 h). Two cycles of whole body IR (2 Gy) were given 15 min after the first compound administration (0.25 hour). Control animals were administered vehicle PO bid (0 and 4 h). […]
as §1

[7] = Blood exposure in OD26749 bridging study; type: in vivo, nude mice; conditions: nude, mouse, whole blood; 100 mg/kg PO bid (0 and 4 h) combination groups with 2 Gy whole body IR
primary human tumors = test: Primary tumor chemosensitivity assay (TCA), Cell Titer-Glo, Bliss; type: cell-based; conditions: Compound (2) with bleomycin; gastric, pancreatic tumors
Protocol: Primary human tumors tested in vitro may provide a better indicator of efficacy of DNA PK inhibition than immortalized cancer cell lines due to their increased heterogeneity and closer proximity to the patient tumor from which they were derived. […] Dissociated cells from mouse-passaged tumors were cultured for 6 days after combination exposure and then assessed for viability using the Cell Titer-Glo assay. The Bliss Additivity statistical model was used to determine the degree of synergy, additivity, or antagonism of each combination treatment.

For `[2H]c1nc(C)nc([2H])c1-c1cc(NC[C@@H](C)c2cccc3c(C(=O)NC)ccnc23)ncn1` [Compound (2), (S)-N-methyl-8-(1-((2′-methyl-4′,6′-dideutero-[4,5′-bipyrimidin]-6-yl)amino)propan-2-yl)quinoline-4-carboxamide], which “Max. body wt loss (%)” value ([1]; PO 25 mg/kg bid (0, 4 h) qdx3, 2 Gy IR ([…]) qdx3, Day 3) is on record?
The value was −6.59%.

And the “Max. body wt loss (%)” value ([1]; PO 25 mg/kg qdx3, 2 Gy IR ([…]) qdx3, Day 1)?
Its value is −4.62%.

And the “Max. body wt loss (%)” value ([1]; PO 50 mg/kg bid (0, 4 h) qdx3, 2 Gy IR ([…]) qdx3, Day 3)?
The value was −6.93%.

And the “Max. body wt loss (%)” value ([1]; PO 50 mg/kg bid (0, 4 h) qdx3, no IR, Day 9)?
The value was −1.11%.

And the “Max. body wt loss (%)” value ([1]; PO 50 mg/kg qdx3, 2 Gy IR ([…]) qdx3, Day 3)?
The value was −4.66%.

And the “% T/Ti (Day 34)” value ([2]; PO 25 mg/kg bid (0, 4 h) qdx3, 2 Gy IR ([…]) qdx3)?
Its value is −67.1%.

And the “% T/Ti (Day 34)” value ([2]; PO 50 mg/kg bid (0, 4 h) qdx3, 2 Gy IR ([…]) qdx3)?
Its value is −96.3%.

What about the “% T/C (Day 34)” value ([2]; PO 50 mg/kg bid (0, 4 h) qdx3, no IR) of the same molecule?
Its value is 98.3%.

What about the “% T/Ti (Day 34)” value ([2]; PO 50 mg/kg qdx3, 2 Gy IR ([…]) qdx3) of the same molecule?
Its value is −96.9%.

And the “% T/C (Day 45)” value ([3]; 2 Gy IR qdx3 ([…]), Compound (2) PO 25 mg/kg bid (0, 4 h) qdx3)?
Its value is 11.1%.

And the “% T/C (Day 45)” value ([3]; 2 Gy IR qdx3 ([…]), Compound (2) PO 50 mg/kg bid (0, 4 h) qdx3)?
The value was 2.5%.

And the “% T/C (Day 45)” value ([3]; Compound (2) PO 50 mg/kg bid (0, 4 h) qdx3, no IR)?
Its value is 95.4%.

What about the “% T/C (Day 34)” value ([3]; Compound (2) PO 25 mg/kg bid (0, 4 h) qdx3, 2 Gy IR qdx3 ([…])) of the same molecule?
The value was 17.4%.

And the “% T/C (Day 34)” value ([3]; Compound (2) PO 100 mg/kg bid (0, 4 h) qdx3, 2 Gy IR qdx3 ([…]))?
The value was 9.2%.

And the “% T/C (Day 34)” value ([3]; Compound (2) PO 100 mg/kg bid (0, 4 h) qdx3, no IR)?
The value was 67.6%.

And the “Max. body wt loss (%)” value [4]?
Its value is −6.50%.

What about the “Max. body wt loss (%)” value [5] of the same molecule?
The value was −2.10%.

What about the “% T/C (Day 22)” value [6] of the same molecule?
The value was 27.2%.

What about the AUC [7] of the same molecule?
The AUC was 58200 ng·h/mL.

What about the “tumors additive or synergistic / tumors tested” value (primary human tumors) of the same molecule?
The value was 20/20.

And the “tumors strongly synergistic / tumors tested” value (primary human tumors)?
Its value is 3/20.
